Patent US11655216B2 (priority 2016, dated 2023)
Like-named read-outs stand apart in the source and are kept apart here.

Tests used:
[1] = target: T1, glutathione-S-transferase (GST) tagged LXRbeta LBD (ligand binding domain) (Homo sapiens, UniProt P55055); assay: LanthaScreen TR-FRET Liver X Receptor Coactivator Assay, LXR beta; format: biochemical; conditions: for EC50: LXR beta IP, potency (Inflection Point), compound-induced co-activator recruitment, TR-FRET; for Emax: read-out: LXR beta actiivty at max dose, efficacy (% Emax) in relation to reference dual agonist T0901317
T1 construct: purchased Invitrogen pv4658
T1 sequence (P55055 222-460 limits assumed): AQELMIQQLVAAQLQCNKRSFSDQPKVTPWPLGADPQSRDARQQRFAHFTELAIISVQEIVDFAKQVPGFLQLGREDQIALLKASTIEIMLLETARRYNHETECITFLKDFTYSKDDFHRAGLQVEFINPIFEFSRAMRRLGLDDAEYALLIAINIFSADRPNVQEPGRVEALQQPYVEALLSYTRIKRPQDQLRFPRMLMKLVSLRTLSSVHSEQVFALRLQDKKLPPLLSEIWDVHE
Description: (§1) While running the LanthaScreen™ TR-FRET Liver X Receptor Coactivator Assay, LXR alpha-LBD or LXR beta-LBD was added to ligand test compounds followed by addition of a mixture of a fluorescein-labelled coactivator peptide and terbium-conjugated anti-GST antibody. After an incubation period at room temperature, TR-FRET (time-resolved fluorescence resonance energy transfer) was measured using a filter-based instrument capable of TR-FRET, e.g. PerkinElmer Envision.

[2] = target: T2, glutathione-S-transferase (GST) tagged LXRalpha LBD (ligand binding domain) (Homo sapiens, UniProt Q13133); assay: biochemical
T2 construct: purchased Invitrogen pv4655
T2 sequence (Q13133 209-447 limits assumed): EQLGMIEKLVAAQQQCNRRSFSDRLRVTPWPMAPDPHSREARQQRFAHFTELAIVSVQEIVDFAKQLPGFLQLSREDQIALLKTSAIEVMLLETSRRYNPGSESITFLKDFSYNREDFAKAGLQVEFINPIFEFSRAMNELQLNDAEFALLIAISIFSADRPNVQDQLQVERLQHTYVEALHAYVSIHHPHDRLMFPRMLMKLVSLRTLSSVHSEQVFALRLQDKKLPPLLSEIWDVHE
Description: as §1

[3] = efficacy (% Emax) in relation to reference dual agonist T0901317
[4] = LXR alpha IP, potency (Inflection Point), compound-induced co-activator recruitment, TR-FRET
[5] = potency (Inflection Point), compound-induced co-activator recruitment, TR-FRET
[6] = read-out: LXR alpha actiivty at max dose, efficacy (% Emax) in relation to reference dual agonist T0901317

SMILES: CC(C[C@H]1CC12CCN(C(=O)C1(c3ccccc3)CCC1)CC2)Oc1ccc(C(=O)N(C)C)c(Cl)c1 (single isomer, unassigned) [Example 13-1, 2-chloro-N,N-dimethyl-4-((S or R)-1-((R or S)-6-(1-phenylcyclobutanecarbonyl)-6-azaspiro[2.5]octan-1-yl)propan-2-yloxy)benzamide]
- EC50 [1]: 0.087 µM
- Emax [1]: 110%
- Emax ([2]; efficacy (% Emax) in relation to reference dual agonist T0901317, read-out: LXR alpha actiivty at max dose): 25%
- EC50 ([2]; potency (Inflection Point), compound-induced co-activator recruitment, TR-FRET, read-out: LXR alpha IP): 0.762 µM

SMILES: COc1cccc(C(O)(C(=O)N2CCC3(CCC(Oc4ccc(C(=O)N(C)C)c(Cl)n4)CC3)CC2)C(F)(F)F)c1 (single isomer, unassigned) [Example 1-3, 2-chloro-N,N-dimethyl-6-(3-((R or S)-3,3,3-trifluoro-2-hydroxy-2-(3-methoxyphenyl)propanoyl)-3-azaspiro[5.5]undecan-9-yloxy)nicotinamide]
- EC50 [1]: 0.075 µM
- LXR beta actiivty at max dose [1, 3]: 84%
- EC50 [2, 4]: 1.16 µM
- LXR alpha actiivty at max dose [2, 3]: 21%

SMILES: CCc1cccc(C(O)(C(=O)N2CCC(CCCCOc3ccc(C(=O)N(C)C)c(Cl)c3)CC2)C(F)(F)F)c1 (single isomer, unassigned) [Example 3-12, (R or S)-2-chloro-4-(4-(1-(2-(3-ethylphenyl)-3,3,3-trifluoro-2-hydroxypropanoyl)piperidin-4-yl)butoxy)-N,N-dimethylbenzamide]
- EC50 [1]: 0.016 µM
- Emax [1]: 76%
- LXR alpha IP [2, 5]: No IP
- Emax [2, 6]: 15%

SMILES: COc1cccc([C@@](O)(C(=O)N2CCC(C[C@H]3C[C@@H](Oc4ccc(C(=O)N(C)C)c(Cl)c4)C3)CC2)C(F)F)c1 (single isomer, unassigned) [Example 37-8, 2-chloro-4-((1R,3s)-3-((1-((R or S)-3,3-difluoro-2-hydroxy-2-(3-methoxyphenyl)propanoyl)piperidin-4-yl)methyl)cyclobutoxy)-N,N-dimethylbenzamide]
- EC50 [1]: 0.354 µM
- Emax [1]: 51%
- LXR alpha IP [2, 5]: No IP
- Emax [2, 6]: 0%

SMILES: COc1cccc([C@@](O)(C(=O)N2CCC([C@H]3CC[C@@H](Oc4ccc(C(=O)N(C)C)c(Cl)c4)CC3)CC2)C(F)(F)F)c1 (single isomer, unassigned) [Example 38-1, 2-chloro-N,N-dimethyl-4-((1S,4s)-4-(1-((R or S)-3,3,3-trifluoro-2-hydroxy-2-(3-methoxyphenyl)propanoyl)piperidin-4-yl)cyclohexyloxy)benzamid]
- EC50 [1]: 0.003 µM
- Emax [1]: 89%
- EC50 [2, 4]: 0.049 µM
- Emax [2, 6]: 44%

SMILES: CN(C(=O)c1ccc(OCCCCC2CCN(C(=O)[C@](O)(c3ccccc3)C(F)(F)F)CC2)cc1Cl)[C@H]1CCOC1 (single isomer, unassigned) [Example 8-16, 2-chloro-N-methyl-N-((S or R)-tetrahydro-furan-3-yl)-4-(4-(1-((R or S)-3,3,3-trifluoro-2-hydroxy-2-phenylpropanoyl)piperidin-4-yl)butoxy) benzamide]
- EC50 [1]: 0.01 µM
- Emax [1]: 71%
- EC50 [2, 4]: 0.116 µM
- Emax [2, 6]: 32%

SMILES: CN(C)C(=O)c1ccc(OC[C@H]2C[C@@H]2C2CCN(C(=O)C(C)(C)c3ccccc3)CC2)cc1Cl (single isomer, unassigned) [Example 32-6, 2-chloro-N,N-dimethyl-4-(((1S,2R or 1R,2S)-2-(1-(2-methyl-2-phenylpropanoyl)piperidin-4-yl)cyclopropyl)methoxy) benzamide]
- EC50 [1]: 0.042 µM
- Emax [1]: 75%
- EC50 [2, 4]: 0.631 µM
- Emax [2, 6]: 33%

SMILES: CNC(=O)c1ccc(OC[C@H]2C[C@@H]2C2CCN(C(=O)[C@](O)(c3ccccc3)C(F)(F)C(F)(F)F)CC2)cc1Cl (single isomer, unassigned) [Example 32-5, 2-chloro-N-methyl-4-(((1S,2R or 1R,2S)-2-(1-((R or S)-3,3,4,4,4-pentafluoro-2-hydroxy-2-phenylbutanoyl)piperidin-4-yl)cyclopropyl)methoxy) benzamide]
- EC50 [1]: 0.136 µM
- Emax [1]: 149%
- EC50 [2, 4]: 1.54 µM
- Emax [2, 6]: 33%

SMILES: COc1cccc(C(O)(C(=O)N2CCC(CCCCOc3ccc(C(=O)N(C)C)c(Cl)c3)CC2)C(F)(F)F)c1 (single isomer, unassigned) [Example 3-13, (S or R)-2-chloro-N,N-dimethyl-4-(4-(1-(3,3,3-trifluoro-2-hydroxy-2-(3-methoxyphenyl)propanoyl)piperidin-4-yl)butoxy)benzamide]
- EC50 [1]: 0.394 µM
- Emax [1]: 61%
- LXR alpha IP [2, 5]: No IP
- Emax [2, 6]: 0%

SMILES: COc1cccc(C(O)(C(=O)N2CCC(CC(C)CC(C)Oc3ccc(C(=O)N(C)C)c(Cl)c3)CC2)C(F)(F)F)c1 (single isomer, unassigned) [Example 30-1, 2-chloro-N,N-dimethyl-4-(4-methyl-5-(1-((R or S)-3,3,3-trifluoro-2-hydroxy-2-(3-methoxyphenyl)propanoyl)piperidin-4-yl)pentan-2-yloxy)benzamide]
- EC50 [1]: 0.099 µM
- Emax [1]: 84%
- LXR alpha IP [2]: No IP
- Emax ([2]; read-out: LXR alpha actiivty at max dose): 8%

SMILES: COc1cccc(C(O)(C(=O)N2CCC(C3CC3(C)COc3ccc(C(=O)N(C)C)c(Cl)c3)CC2)C(F)(F)F)c1 (single isomer, unassigned) [Example 16-1, 2-chloro-N,N-dimethyl-4-((1-methyl-2-(1-((R or S)-3,3,3-trifluoro-2-hydroxy-2-(3-methoxyphenyl)propanoyl)piperidin-4-yl)cyclopropyl)methoxy)benzamide]
- EC50 [1]: 0.066 µM
- Emax [1]: 84%
- EC50 [2, 4]: 0.955 µM
- Emax [2, 6]: 18%

SMILES: CN(C)C(=O)c1ccc(OCCC2CC23CCN(C(=O)C2(c4cncnc4)CCC2)CC3)cc1Cl (single isomer, unassigned) [Example 12-19, (S or R)-2-chloro-N,N-dimethyl-4-(2-(6-(1-(pyrimidin-5-yl)cyclobutanecarbonyl)-6-azaspiro[2.5]octan-1-yl)ethoxy)benzamide]
- EC50 [1]: 0.426 µM
- Emax [1]: 12%
- LXR alpha IP [2, 5]: No IP
- Emax [2, 6]: 14%

SMILES: CN(C)C(=O)c1ccc(OCCCC2CC23CCN(C(=O)C2(c4ccccc4)CCCC2)CC3)cc1Cl (single isomer, unassigned) [Example 14-2, (R or S)-2-chloro-N,N-dimethyl-4-(3-(6-(1-phenylcyclopentanecarbonyl)-6-azaspiro[2.5]octan-1-yl)propoxy)benzamide]
- EC50 [1]: 0.028 µM
- Emax [1]: 86%
- EC50 [2, 4]: 0.424 µM
- Emax [2, 6]: 17%

SMILES: CN(C)C(=O)c1ccc(OCC[C@@H]2CC23CCN(C(=O)C(O)(c2cccc4c2OC(F)(F)O4)C(F)(F)F)CC3)cc1Cl (single isomer, unassigned) [Example 12-16, 2-chloro-4-(2-((1S or 1R)-6-(2-(2,2-difluorobenzo[d][1, 3]dioxol-4-yl)-3,3,3-trifluoro-2-hydroxypropanoyl)-6-azaspiro[2.5]octan-1-yl)ethoxy)-N,N-dimethylbenzamide]
- EC50 [1]: 0.026 µM
- Emax [1]: 33%
- LXR alpha IP [2, 5]: No IP
- Emax [2, 6]: 8%

SMILES: COc1cccc([C@](O)(C(=O)N2CCC(CCCC(C)Oc3ccc(C(=O)N(C)C)c(Cl)c3)CC2)C(F)(F)F)c1 (single isomer, unassigned) [Example 25-2, 2-chloro-N,N-dimethyl-4-((R or S)-5-(1-((S or R)-3,3,3-trifluoro-2-hydroxy-2-(3-methoxyphenyl)propanoyl)piperidin-4-yl)pentan-2-yloxy)benzamide]
- EC50 [1]: 0.098 µM
- Emax [1]: 84%
- EC50 [2, 4]: 1.36 µM
- Emax [2, 6]: 12%

SMILES: CN(C)C(=O)c1ccc(OCCCCC2CCN(C(=O)c3c(F)cccc3F)CC2)nc1Cl [Example 3-15, 2-chloro-6-(4-(1-(2,6-difluorobenzoyl)piperidin-4-yl)butoxy)-N,N-dimethylnicotinamide]
- EC50 [1]: 0.328 µM
- Emax [1]: 80%
- LXR alpha IP [2, 5]: No IP
- Emax [2, 6]: 14%

SMILES: COc1cccc([C@@](O)(C(=O)N2CCC(CC(C)CC(F)(F)Oc3ccc(C(=O)N(C)C)c(Cl)c3)CC2)C(F)(F)F)c1 (single isomer, unassigned) [Example 28-1, 2-chloro-4-((R or S)-1,1-difluoro-3-methyl-4-(1-((R or S)-3,3,3-trifluoro-2-hydroxy-2-(3-methoxyphenyl)propanoyl)piperidin-4-yl)butoxy)-N,N-dimethylbenzamide]
- EC50 [1]: 0.065 µM
- Emax [1]: 62%
- LXR alpha IP [2, 5]: No IP
- Emax [2, 6]: 0%
